# Source: patent US20150164901A1, “COMPOUNDS, COMPOSITIONS AND METHODS FOR TREATING OR PREVENTING NEURODEGENERATIVE DISORDERS” (President and Fellows of Harvard College, priority 2012, published 2015)
# Experiments:
# human motor neurons [1] = assay: SMN expression distribution in human motor neurons treated with Trichostatin A (FIG. 14); format: cell-based; settings: compared to a control
# hb9_RFP motor neurons = assay: SMN knockdown (shRNA lentivirus) induced motor neuron death (FIG. 8A-8B); format: cell-based; settings: SMN knockdown using shRNA lentivirus in hb9_RFP motor neurons
# Description: (§1) MLN4924 is able to reverse the effects of SMN knockdown on motor neuron death. Representative images are shown.
# [2] = tested on: SMN-deficient human motor neurons; assay: Survival of human motor neurons derived from SMA patient iPS cells (FIG. 10C, 10E); format: cell-based; settings: SMA Type II (1-51) and SMA Type I iPS-derived motor neurons on glia with Ara C, 7 days
# Description: (§2) Representative images are shown for Type II motor neurons. SMN is shown in red, the motor neuron marker islet 1 is shown in green, and the nuclear marker Hoechst is shown in blue. […] Error bars indicate ±S.E.M.
# SMN [3] = assay: SMN levels in wild type and patient iPS-derived motor neurons (FIG. 16); format: cell-based, human; settings: motor neurons BJ RIPS (WT), A19 (C9 ORF), 27B (SOD1), 1-51N (SMA type II)
# [4] = tested on: proliferation in the culture; assay: Proliferation in motor neuron cultures; format: cell-based
# Description: (§3) As shown herein, MLN increases SMN in human MNs, both in measures of average SMN and # of high SMN expressors. […] The effect on proliferation can be dissociated, for example, by using AraC in protocols for differentiation of cells into motor neurons.
# [5] = tested on: motor neurons derived from ES cells; assay: Survival of ES cell-derived hb9-GFP motor neurons, time-course imaging (FIG. 7); format: cell-based, mouse
# Procedure: FIG. 7A is a line graph showing the results of a time-course analysis of motor neurons derived from ES cells expressing GFP under the motor neuron specific hb9 promoter performed with imaging every 6 hours for a 7 day period. […] The error bars indicate ±S.E.M.
# motor neurons = assay: Survival of wild type and ALS patient motor neurons (FIG. 17); format: cell-based, human; settings: BJ RIPS (WT), 18A (WT), 27B (SOD1), 31D (TDP43), A19 (C9ORF)
# SMN [6] = assay: SMN immunostaining in human motor neurons derived from SMA patient iPS cells (FIG. 10B, 10D, 10F); format: cell-based; settings: SMA Type II (1-51) and SMA Type I iPS-derived motor neurons on glia with Ara C, 7 days
# Description: as §2
# [7] = tested on: human motor neurons derived from ALS patient iPS cells; assay: Survival of human motor neurons derived from wild-type and ALS patient ES or iPS cells (FIG. 11); format: cell-based; settings: wild-type (HUES3, 18a) and ALS patient (47a) lines on glia, treated 14 days after 7 days in culture
# Description: FIG. 11A are immune stains of motor neurons derived from human wild-type (HUES3, 18a) and ALS patient (47a) ES or iPS cells. […] Representative images are shown for the Hues3 line which expresses GFP under the hb9 promoter shown is green, human nuclear antigen (hNA) shown in pink, and the nuclear marker Hoechst is shown in blue. […] Error bars indicate ±S.E.M.
# Gem counts = Gem counts in wild type and ALS patient motor neurons (FIG. 18); format: cell-based, human; settings: motor neurons 18A (WT), A19 (C9 ORF), 31D (TDP43), 27B (SOD1)
# SMN [8] = assay: SMN in human motor neurons (summary of data); format: cell-based; settings: human MNs
# Description: as §3
# SMN [9] = assay: Histogram analysis of SMN expression in motor neurons under SMN RNAi (FIG. 8C); format: cell-based
# Description: as §1
# [10] = tested on: SMN-deficient motor neurons; assay: Survival of SMA-like mouse motor neurons derived from ES cells of A2 mice (FIG. 9B); format: cell-based; settings: A2 mouse ES-derived motor neurons (no mSMN, two copies of hSMN2), treated four days
# Procedure: (§4) FIG. 9A are images of immunostains of motor neurons derived from the ES-cells of A2 mice that lack a functional copy of mSMN but are supplemented with two copies of hSMN2 and thus are deficient but not completely lacking SMN protein were treated with MLN4924 for four days, SMN is shown in red and the hb9 promoter driven-GFP is shown in green. […] The error bars indicate ±S.E.M.
# SMN [11] = assay: SMN immunostaining in SMA-like mouse motor neurons (FIG. 9C-9D); format: cell-based; settings: A2 mouse ES-derived motor neurons, treated four days
# Procedure: as §4
# SMN [12] = assay: Western blot of SMN in lysates of motor neuron cultures (FIG. 6A-6B); format: cell-based; settings: treated for 3 days, DMSO as control
# human motor neurons [13] = assay: Motor neuron survival in human motor neurons (summary of data); format: cell-based
# Description: as §3
# Brn2+ neurons = assay: Survival of Brn2+ neurons (FIG. 13); format: cell-based; settings: compared to DMSO control
# SMN transcript = assay: Quantitative RT-PCR of SMN transcript in motor neuron cultures (FIG. 6C); format: cell-based; settings: compared to control
# SMN protein = assay: SMN-specific antibody staining of SMA patient and parent fibroblasts (FIG. 2C); format: cell-based; settings: human fibroblasts derived from SMA patients and their parents
# Description: FIG. 2A is a Western blot analysis showing the levels of SMN in cells expressing wild-type SMN and the dominant negative form of Cullin1 protein. […] FIGS. 2D and 2E are dose response curves of nuclear (FIG. 2D) and cytoplasmic (FIG. 2E) SMN levels in SMA patient and parent fibroblasts treated with MLN4924 at the indicated time points. The error bars in FIGS. 2D and 2B indicate ±S.E.M. SMN levels are normalized to DMSO control for each cell line at each time point.
# SMN [14] = assay: Immunocytochemical analysis of SMN in motor neurons derived from mouse embryonic stem cells (FIG. 6D-6G); format: cell-based
# Description: FIGS. 6B and 6C are bar graphs quantifying the results in FIG. 6A. […] SMN is shown in red and GFP driven by the motor neuron specific promoter hb9 is shown in green. […] High SMN expressor is defined as those motor neurons that harbor SMN levels greater than the top 10th percentile as defined in the DMSO control. Error bars indicate ±S.E.M.
smiles,measurement,setting,value
CC(/C=C/C(=O)NO)=C\[C@@H](C)C(=O)c1ccc(N(C)C)cc1 [Trichostatin A],number of low SMN expressing motor neurons,human motor neurons [1],selectively reduces
"NS(=O)(=O)OC[C@@H]1C[C@@H](n2ccc3c(N[C@H]4CCc5ccccc54)ncnc32)C[C@@H]1O [MLN4924, ((1S,2S,4R)-4-(4-(((S)-2,3-dihydro-1H-inden-1-yl)amino)-7H-pyrrolo[2,3-d]pyrimidin-7-yl)-2-hydroxycyclopentyl)methyl sulfamate]",effect of SMN RNAi on inducing motor neuron death,hb9_RFP motor neurons,significantly inhibits
same,number of surviving motor neurons,[2],significantly increases
same,SMN levels,SMN [3],increases SMN levels
same,proliferation,[4],inhibits proliferation
same,motor neuron survival (time-course analysis),[5]; imaging every 6 hours for a 7 day period,significantly increases
same,motor neuron survival (dose response),[5]; mouse-ES derived motor neurons,dose-dependent significant increase
same,survival of motor neurons,motor neurons,increases the survival
same,SMN levels,SMN [6],significantly increases
same,number of high SMN expressing motor neurons,SMN [6],significantly increases
same,number of surviving motor neurons,[7],significantly increases
same,Gem counts,Gem counts,increases Gem counts
same,# of high SMN expressors,SMN [8],increases
same,average SMN,SMN [8],increases
same,number of high SMN expressing motor neurons,SMN [9],increases
same,number of surviving motor neurons,[10],significantly increases
same,SMN levels,SMN [11],significantly increases
same,number of high SMN expressing motor neurons,SMN [11],significantly increases
same,SMN levels (Western blot),SMN [12],significantly increased
same,survival of motor neurons derived from ALS patients and their parents,human motor neurons [13],promotes survival
same,survival of motor neurons derived from SMA patients and their parents,human motor neurons [13],promotes survival
same,motor neuron survival,human motor neurons [13]; human motor neurons,promote motor neuron survival
same,"MN survival, preliminary results","human motor neurons [13]; preliminary, believed to depend on the amount of proliferation in the culture",variable
same,survival of Brn2+ neurons,Brn2+ neurons,increases survival
same,SMN transcript levels (quantitative RT-PCR),SMN transcript,not significantly affected
same,SMN protein (SMN-specific antibody staining),SMN protein,stabilization of SMN protein
same,number of high SMN expressing motor neurons,SMN [14]; high SMN expressor = SMN levels greater than the top 10th percentile of DMSO control,dose-dependent effect
same,amount of low SMN expressors (histogram analysis),SMN [14]; mouse ES-derived motor neurons,without affecting
same,number of motor neurons with higher levels of SMN expression (histogram analysis),SMN [14]; mouse ES-derived motor neurons,increases
same,average intensity of SMN,"SMN [14]; mouse ES-derived motor neurons, treated at plating, fixed four days later, increasing levels of MLN4924",significantly increases in a dose-dependent manner
